Reference: ChEMBL document CHEMBL6074674, “Development of Novel Silicon-Based Hydrophobic Tags (SiHyT) for Targeted Proteins Degradation” (J Med Chem, 2024)
The source made the active and inactive calls. The rule behind the calls is not given here.

Assays:
[1] = test system: E3 ubiquitin-protein ligase RNF149/Epidermal growth factor receptor (Homo sapiens), P00533+Q8NC42 [UNDEFINED MUTATION]; experiment: SiHyT-mediated degrader activity at RNF149/EGFR mutant in human HCC827 cels assessed as induction of EGFR degradation at 0.1 uM cells incubated in serum-free media for 8 hrs followed by incubation with compound for 24 hrs by western blot analysis; assay type: cell-based
E3 ubiquitin-protein ligase RNF149/Epidermal growth factor receptor (Homo sapiens), P00533+Q8NC42 [UNDEFINED MUTATION], sequence (P00533 whole entry, looked up, stated change not applied): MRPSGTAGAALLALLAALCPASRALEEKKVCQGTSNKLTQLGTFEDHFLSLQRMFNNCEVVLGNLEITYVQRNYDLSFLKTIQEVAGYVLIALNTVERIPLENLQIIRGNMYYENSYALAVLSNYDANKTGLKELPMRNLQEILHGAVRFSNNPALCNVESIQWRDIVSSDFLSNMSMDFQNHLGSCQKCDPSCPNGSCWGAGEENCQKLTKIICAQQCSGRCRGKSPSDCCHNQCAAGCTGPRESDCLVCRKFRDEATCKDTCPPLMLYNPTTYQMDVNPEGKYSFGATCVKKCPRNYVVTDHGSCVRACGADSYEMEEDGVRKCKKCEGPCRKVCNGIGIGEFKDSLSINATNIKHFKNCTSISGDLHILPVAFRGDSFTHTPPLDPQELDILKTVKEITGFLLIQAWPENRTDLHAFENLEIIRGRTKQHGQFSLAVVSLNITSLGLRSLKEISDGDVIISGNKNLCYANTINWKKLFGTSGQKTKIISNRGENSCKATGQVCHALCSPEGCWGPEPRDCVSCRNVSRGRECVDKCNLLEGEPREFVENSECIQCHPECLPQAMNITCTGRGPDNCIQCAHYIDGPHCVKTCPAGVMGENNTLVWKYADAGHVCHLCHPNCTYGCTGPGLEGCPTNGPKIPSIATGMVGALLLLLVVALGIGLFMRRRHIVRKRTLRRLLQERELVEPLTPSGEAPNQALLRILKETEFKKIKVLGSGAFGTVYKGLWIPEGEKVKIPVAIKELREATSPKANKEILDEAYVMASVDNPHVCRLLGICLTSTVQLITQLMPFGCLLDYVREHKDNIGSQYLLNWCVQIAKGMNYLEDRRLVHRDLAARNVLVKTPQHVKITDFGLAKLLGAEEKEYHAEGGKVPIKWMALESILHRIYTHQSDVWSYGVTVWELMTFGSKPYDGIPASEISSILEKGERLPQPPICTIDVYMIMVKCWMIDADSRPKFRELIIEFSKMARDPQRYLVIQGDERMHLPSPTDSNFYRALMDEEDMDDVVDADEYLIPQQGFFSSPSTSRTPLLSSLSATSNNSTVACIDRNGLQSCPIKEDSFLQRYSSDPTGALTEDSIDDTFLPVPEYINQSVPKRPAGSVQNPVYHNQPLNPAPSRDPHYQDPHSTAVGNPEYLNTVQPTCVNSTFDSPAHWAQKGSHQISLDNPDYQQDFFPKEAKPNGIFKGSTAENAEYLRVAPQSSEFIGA
E3 ubiquitin-protein ligase RNF149/Epidermal growth factor receptor (Homo sapiens), P00533+Q8NC42 [UNDEFINED MUTATION], sequence (Q8NC42 whole entry, looked up, stated change not applied): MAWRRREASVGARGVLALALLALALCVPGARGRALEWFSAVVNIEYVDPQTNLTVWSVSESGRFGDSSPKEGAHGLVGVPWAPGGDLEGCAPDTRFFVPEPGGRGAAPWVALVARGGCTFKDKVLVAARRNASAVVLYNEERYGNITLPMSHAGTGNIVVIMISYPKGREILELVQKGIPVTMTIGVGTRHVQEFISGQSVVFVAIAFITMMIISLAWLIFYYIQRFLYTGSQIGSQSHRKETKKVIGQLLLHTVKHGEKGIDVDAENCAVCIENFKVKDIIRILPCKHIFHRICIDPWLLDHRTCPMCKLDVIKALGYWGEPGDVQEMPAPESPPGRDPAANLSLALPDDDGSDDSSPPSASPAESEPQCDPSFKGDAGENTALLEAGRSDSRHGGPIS

[2] = test system: E3 ubiquitin-protein ligase RNF149/Epidermal growth factor receptor (Homo sapiens), P00533+Q8NC42 [UNDEFINED MUTATION]; experiment: SiHyT-mediated degrader activity at RNF149/EGFR mutant in human HCC827 cells assessed as induction of EGFR degradation at 1 uM cells incubated in serum-free media for 8 hrs followed by incubation with compound for 24 hrs by western blot analysis; assay type: cell-based
HCC827 [3] = experiment: Antiproliferative activity against human HCC827 cells assessed as decrease in cell survival measured after 72 hrs by CCK-8 assay; assay type: functional, cell-based; conditions: HCC827, 72 h
[4] = Intrinsic clearance of the compound in human liver microsomes at 1 uM in presence of NADPH by LC-MS/MS analysis; assay type: ADME, Microsome; conditions: read-out: CLH
[5] = Half life of the compound in human liver microsomes at 1 uM in presence of NADPH by LC-MS/MS analysis; assay type: ADME, Microsome
[6] = Half life of the compound in mouse liver microsomes at 1 uM in presence of NADPH by LC-MS/MS analysis; assay type: ADME, Microsome
[7] = Intrinsic clearance of the compound in mouse liver microsomes at 1 uM in presence of NADPH by LC-MS/MS analysis; assay type: ADME, Microsome; conditions: read-out: CLH
HCC827 [8] = experiment: Induction of cell cycle arrest in human HCC827 cells assessed as increase in cell accumulation at G1 phase at 0.01 to 0.1 uM incubated for 24 hrs by propidium iodide staining based flow cytometry; assay type: functional; conditions: dose 0.01-0.1 µM
PC-9 [9] = experiment: Antiproliferative activity against human PC-9 cells assessed as decrease in cell survival measured after 72 hrs by CCK-8 assay; assay type: functional, cell-based; conditions: PC-9, 72 h
PC-9 [10] = experiment: Induction of cell cycle arrest in human PC-9 cells assessed as increase in cell accumulation at G1 phase at 0.01 to 0.1 uM incubated for 24 hrs by propidium iodide staining based flow cytometry; assay type: functional; conditions: dose 0.01-0.1 µM
Kasumi 1 [11] = experiment: SiHyT-mediated degrader activity at RNF149/PDL1 in human Kasumi 1 cells assessed as induction of PDL1 degradation at 1 uM incubated for 3 to 24 hrs by western blot analysis; assay type: cell-based; conditions: time 3-24 hrs
Kasumi 1 [12] = experiment: SiHyT-mediated degrader activity at RNF149/PDL1 in human Kasumi 1 cells assessed as increase in PDL1 ubiquitination pretreated with MG132 followed by incubation with compound for 9 hrs by immunoprecipitation based western blot analysis; assay type: cell-based
Kasumi 1 [13] = experiment: SiHyT-mediated degrader activity at RNF149/PDL1 in human Kasumi 1 cells assessed as reduction in half life of PDL1 at 1 uM incubated for 6 to 24 hrs in presence of protein synthesis inhibitor, CHX by western blot analysis; assay type: cell-based; conditions: time 6-24 hrs
Kasumi 1 [14] = experiment: SiHyT-mediated degrader activity at RNF149/PDL1 in human Kasumi 1 cells assessed as induction of PDL1 degradation at 1 uM pretreated with E1 ligase inhibitor, PYR-41 for 4 hrs followed by incubation with compound for 24 hrs by western blot analysis; assay type: cell-based
Kasumi 1 [15] = experiment: SiHyT-mediated degrader activity at RNF149/PDL1 in human Kasumi 1 cells assessed as induction of PDL1 degradation at 1 uM pretreated with proteasome inhibitor, MG-132 for 4 hrs followed by incubation with compound for 24 hrs by western blot analysis; assay type: cell-based
[16] = (§1) SiHyT-mediated degrader activity at RNF149/PDL1 in human Kasumi 1 cells assessed as induction of PDL1 degradation incubated for 24 hrs by western blot analysis; assay type: cell-based; conditions: Kasumi 1, 24 h
Kasumi 1 [17] = experiment: as §1; assay type: cell-based
Kasumi 1 [18] = experiment: SiHyT-mediated degrader activity at RNF149/PDL1 in human Kasumi 1 cells assessed as increase in PDL1 degradation by measuring decrease in PDL1 expression incubated for 12 hrs by proteomics analysis; assay type: cell-based
MOLM-13 [19] = experiment: SiHyT-mediated degrader activity at RNF149/BTK in human MOLM-13 cells assessed as induction of BTK degradation at 2.5 uM pretreated with proteasome inhibitor, MG-132 for 4 hrs followed by incubation with compound for 24 hrs by western blot analysis; assay type: cell-based
MOLM-13 [20] = experiment: SiHyT-mediated degrader activity at RNF149/BTK in human MOLM-13 cells assessed as reduction in half life of BTK at 2.5 uM incubated for 6 to 24 hrs in presence of protein synthesis inhibitor, CHX by western blot analysis; assay type: cell-based; conditions: time 6-24 hrs
MOLM-13 [21] = experiment: SiHyT-mediated degrader activity at RNF149/BTK in human MOLM-13 cells assessed as induction of BTK degradation at 2.5 uM pretreated with E1 ligase inhibitor, PYR-41 for 4 hrs followed by incubation with compound for 24 hrs by western blot analysis; assay type: cell-based
[22] = (§2) SiHyT-mediated degrader activity at RNF149/BTK in human MOLM-13 cells assessed as induction of BTK degradation incubated for 24 hrs by western blot analysis; assay type: cell-based; conditions: MOLM-13, 24 h
MOLM-13 [23] = experiment: as §2; assay type: cell-based
MOLM-13 [24] = experiment: SiHyT-mediated degrader activity at RNF149/BTK in human MOLM-13 cells assessed as increase in BTK degradation by measuring decrease in BTK expression incubated for 12 hrs by proteomics analysis; assay type: cell-based
MOLM-13 [25] = experiment: SiHyT-mediated degrader activity at RNF149/BTK in human MOLM-13 cells assessed as induction of BTK degradation at 2.5 uM incubated for 3 to 24 hrs by western blot analysis; assay type: cell-based; conditions: time 3-24 hrs
MOLM-13 [26] = experiment: SiHyT-mediated degrader activity at RNF149/BTK in human MOLM-13 cells assessed as increase in BTK ubiquitination pretreated with MG132 followed by incubation with compound for 9 hrs by immunoprecipitation based western blot analysis; assay type: cell-based

| Structure (SMILES) | Activity [1] | Activity [2] | IC50 (HCC827 [3]) | other results |
| --- | --- | --- | --- | --- |
| COc1cc2ncnc(Nc3ccc(F)c(Cl)c3)c2cc1OCCCN1CCN(CCn2cc(CCO[Si](c3ccccc3)(c3ccccc3)C(C)(C)C)nn2)CC1 | 0% | 58% | 0.99 µM |  |
| COc1cc2ncnc(Nc3ccc(F)c(Cl)c3)c2cc1OCCCN1CCN(CCn2cc(CCCCO[Si](c3ccccc3)(c3ccccc3)C(C)(C)C)nn2)CC1 | 0% | 0% | 3.04 µM |  |
| COc1cc2ncnc(Nc3ccc(F)c(Cl)c3)c2cc1OCCn1cc(CCCNC(=O)CO[C@@H]2C[C@H](C)CC[C@H]2C(C)C)nn1 |  |  |  | CLint scaled at 1 µM [4]: 295 mL/min/kg; half-life at 1 µM [5]: 4.22 min; half-life at 1 µM [6]: 7.4 min; CLint scaled at 1 µM [7]: 741 mL/min/kg |
| COc1cc2ncnc(Nc3ccc(F)c(Cl)c3)c2cc1OCCn1cc(CCCCO[Si](C)(C)C2CCCCC2)nn1 | 46.1% | 53.2% | 0.7 µM |  |
| COc1cc2ncnc(Nc3ccc(F)c(Cl)c3)c2cc1OCCCN1CCN(CCO[Si](c2ccccc2)(c2ccccc2)C(C)(C)C)CC1 | 0% | 16.8% | > 10 µM |  |
| COc1cc2ncnc(Nc3ccc(F)c(Cl)c3)c2cc1OCCCN1CCN(CCn2cc(CCCO[Si](c3ccccc3)(c3ccccc3)C(C)(C)C)nn2)CC1 | 0% | 10.8% | 1.58 µM |  |
| COc1cc2ncnc(Nc3ccc(F)c(Cl)c3)c2cc1OCCCN1CCN(CCCO[Si](c2ccccc2)(c2ccccc2)C(C)(C)C)CC1 | 0% | 0% | > 10 µM |  |
| COc1cc2ncnc(Nc3ccc(F)c(Cl)c3)c2cc1OCCn1cc(CCCO[Si](C)(C)C(C)(C)C)nn1 | 19.7% | 22.4% | 5.62 µM |  |
| COc1cc2ncnc(Nc3ccc(F)c(Cl)c3)c2cc1OCCCN1CCOCC1 [GEFITINIB] |  |  |  | Activity (HCC827 [8]): Dose-dependent-effect; IC50 (PC-9 [9]): 0.013 µM; Activity (PC-9 [10]): Dose-dependent-effect |
| COc1cc2ncnc(Nc3ccc(F)c(Cl)c3)c2cc1OCCn1cc(CCCCO[Si](c2ccccc2)(c2ccccc2)C(C)(C)C)nn1 | 28% | 58.4% | 0.11 µM |  |
| COc1cc(OCc2cccc(-c3ccccc3)c2C)cc(OC)c1CNCc1cn(CCO[Si](c2ccccc2)(c2ccccc2)C(C)(C)C)nn1 |  |  |  | Activity (Kasumi 1 [11]): Time-dependent-effect; Activity (Kasumi 1 [12]): Active; Activity (Kasumi 1 [13]): Active; Activity (Kasumi 1 [14]): inactive; Activity (Kasumi 1 [15]): inactive; DC50 [16]: 0.51 µM; Activity (Kasumi 1 [17]): Active; Activity (Kasumi 1 [18]): Active |
| COc1cc2ncnc(Nc3ccc(F)c(Cl)c3)c2cc1OCCn1cc(CCO[Si](C)(C)C2CCCCC2)nn1 | 12.7% | 47% | 0.45 µM |  |
| CC[Si](CC)(CC)OCCCc1cn(CCOc2cc3c(Nc4ccc(F)c(Cl)c4)ncnc3cc2OC)nn1 | 38.2% | 79.1% | 0.33 µM |  |
| COc1cc2ncnc(Nc3ccc(F)c(Cl)c3)c2cc1OCCCCCCCCO[Si](c1ccccc1)(c1ccccc1)C(C)(C)C | 0% | 0% | > 10 µM |  |
| COc1cc2ncnc(Nc3ccc(F)c(Cl)c3)c2cc1OCCn1cc(CCCO[Si](C(C)C)(C(C)C)C(C)C)nn1 | 4.2% | 18.2% | 7.46 µM |  |
| COc1cc2ncnc(Nc3ccc(F)c(Cl)c3)c2cc1OCCOCCO[Si](c1ccccc1)(c1ccccc1)C(C)(C)C | 0% | 0% | > 10 µM |  |
| COc1cc2ncnc(Nc3ccc(F)c(Cl)c3)c2cc1OCCn1cc(CCCNC(=O)CC23CC4CC(CC(C4)C2)C3)nn1 |  |  |  | CLint scaled at 1 µM [4]: 690 mL/min/kg; half-life at 1 µM [5]: 1.81 min; half-life at 1 µM [6]: 1.05 min; CLint scaled at 1 µM [7]: 5230 mL/min/kg |
| COc1cc2ncnc(Nc3ccc(F)c(Cl)c3)c2cc1OCCn1cc(CCCC(=O)NCC2CC3C=CC2C3)nn1 (configuration not stated) |  |  |  | CLint scaled at 1 µM [4]: 132 mL/min/kg; half-life at 1 µM [5]: 9.48 min; half-life at 1 µM [6]: 8.94 min; CLint scaled at 1 µM [7]: 614 mL/min/kg |
| O=C(O)Cc1ccccc1Nc1c(Cl)cccc1Cl [DICLOFENAC] |  |  |  | CLint scaled at 1 µM [4]: 179 mL/min/kg; half-life at 1 µM [5]: 6.96 min; half-life at 1 µM [6]: 50.2 min; CLint scaled at 1 µM [7]: 109 mL/min/kg |
| COc1cc2ncnc(Nc3ccc(F)c(Cl)c3)c2cc1OCCOCCOCCO[Si](c1ccccc1)(c1ccccc1)C(C)(C)C | 0% | 20.1% | > 10 µM |  |
| CC(C)(C)[Si](OCCn1cc(CCC(=O)N2CCC[C@@H](n3nc(-c4ccc(Oc5ccccc5)cc4)c4c(N)ncnc43)C2)nn1)(c1ccccc1)c1ccccc1 |  |  |  | Activity (MOLM-13 [19]): inactive; Activity (MOLM-13 [20]): Active; Activity (MOLM-13 [21]): inactive; DC50 [22]: 2.78 µM; Activity (MOLM-13 [23]): Active; Activity (MOLM-13 [24]): Active; Activity (MOLM-13 [25]): Time-dependent-effect; Activity (MOLM-13 [26]): Active |
| COc1cc2ncnc(Nc3ccc(F)c(Cl)c3)c2cc1OCCCCCCCO[Si](c1ccccc1)(c1ccccc1)C(C)(C)C | 0% | 0% | > 10 µM |  |
| COc1cc2ncnc(Nc3ccc(F)c(Cl)c3)c2cc1OCCCN1CCN(CCn2cc(CCCCO[Si](C)(C)C3CCCCC3)nn2)CC1 | 0% | 18.4% | > 10 µM |  |
| COc1cc2ncnc(Nc3ccc(F)c(Cl)c3)c2cc1OCCCN1CCN(CCn2cc(CCCO[Si](C)(C)C3CCCCC3)nn2)CC1 | 0% | 13.7% | > 10 µM |  |
| COc1cc2ncnc(Nc3ccc(F)c(Cl)c3)c2cc1OCCn1cc(CCCO[Si](C)(C)C2CCCCC2)nn1 | 52.3% | 55.3% | 0.15 µM |  |
| COc1cc2ncnc(Nc3ccc(F)c(Cl)c3)c2cc1OCCn1cc(CCO[Si](c2ccccc2)(c2ccccc2)C(C)(C)C)nn1 | 46.4% | 72.1% | 0.14 µM |  |
